Data from patent US5747505A, “Heterocyclic aryl-, alkyl- and cycloalkylacetamides” (Bayer Aktiengesellschaft, priority 1995, dated 1998).

Tested on: release of ApoB-100-associated lipoproteins from HepG2 cells
Assay: Inhibition of the release of ApoB-100-associated lipoproteins from cultivated liver cells (HepG2), immunoassay for human LDL
Assay type: cell-based
Conditions: substance concentration at which light absorption (450 nm) is inhibited by 50% vs solvent control
Description: 1. Inhibition of the release of ApoB-100-associated lipopnoteins
The test for detecting the inhibition of the release of ApoB-100-associatedlipoproteins-from liver cells was carried out in vitro using cultivated liver cells, preferably using cells of the human line HepG2. These cells are grown under standard conditions in medium for the culture of eukaryotic cells, preferably in RPMI 1640 with 10% foetal calf serum. HepG2 cells synthesize and secrete into the culture supernatant ApoB-100-associated lipoprotein particles which in principle are constructed similarly to the VLDL and LDL particles which are to be found in the plasma.
These particles can be detected using an immunoassay for human LDL. This immunoassay is carried out using antibodies which have been induced against human LDL in the rabbit under standard conditions. The anti-LDL antibodies (rabbit anti-LDL Ab) were purified by affinity chromatography on an immunosorbent using human LDL. These purified rabbit anti-LDL Ab are adsorbed on the surface of plastic. Expediently, this adsorption takes place on the plastic surface of microtiter plates having 96 wells, preferably on MaxiSorp plates. If ApoB-100-associated particles are present in the supernatant of Hep-G2 cells, these can bind to the insolubilized rabbit anti-LDL Ab and an immune complex is formed which is bound to the plastic surface. Non-bound proteins are removed by washing. The immune complex on the plastic surface is detected using monoclonal antibodies which have been induced against human LDL and purified according to standard conditions. These antibodies were conjugated with the enzyme peroxidase. Peroxidase converts the colourless substrate TMB into a coloured product in the presence of H2 O2. After acidification of the reaction mixture with H2 SO4, the specific light absorption at 450 nm is determined, which is a measure of the amount of ApoB-100-associated particles which have been secreted into the culture supernatant by the HepG2 cells.
The IC50 value indicates at which substance concentration the light absorption is inhibited by 50% in comparison with the control (solvent control without substance).

IC50 | SMILES
195 nM | O=C(N[C@@H](CO)c1ccccc1)C(c1ccc(OCc2ccc3ccccc3n2)s1)C1CCCCCC1 (stereo partly drawn) [Example 1, 2-Cycloheptyl-N-(2-hydroxy-1(R)-phenylethyl)-2-[5-(quinoline-2-ylmethoxy)thiophen-2-yl]acetamide]
> 2000 nM | O=C(NCc1ccccc1)C(c1ccccc1)N1CCC(OCc2ccc3ccccc3n2)CC1 (stereo not shown) [Example 2]
71 nM | O=C(N[C@@H](CO)c1ccccc1)C(c1ccc(OCc2ccccc2Cl)cn1)C1CCCCCC1 (stereo partly shown) [Example 3]
11 nM | O=C(NCc1ccccc1)C(c1ccc(OCc2ccccc2Cl)cn1)C1CCCCCC1 (stereo not shown) [Example 4]
622 nM | O=C(N[C@@H](CO)c1ccccc1)C(c1ccc(OCc2ccc3ccccc3n2)cn1)C1CCCC1 (stereo partly shown) [Example 5]
255 nM | O=C(N[C@@H](CO)c1ccccc1)C(c1ccc(OCc2ccc3ccccc3n2)cn1)C1CCCCCC1 (stereo partly shown) [Example 6]
1880 nM | O=C(N[C@@H](CO)c1ccccc1)C(c1ccc2cc(OCc3ccc4ccccc4n3)ccc2c1)C1CCCC1 (stereo partly shown) [Example 8]
> 2000 nM | O=C(NCC1CCCCC1)C(c1ccc2cc(OCc3ccc4ccccc4n3)ccc2c1)C1CCCC1 (stereo not shown) [Example 9]
> 2000 nM | COc1cc(CNC(=O)C(c2ccc3cc(OCc4ccc5ccccc5n4)ccc3c2)C2CCCC2)ccc1O (stereo not shown) [Example 10]
> 2000 nM | O=C(N[C@H](CO)c1ccccc1)C(c1ccc2cc(OCc3ccc4ccccc4n3)ccc2c1)C1CCCC1 (stereo partly shown) [Example 11]
> 2000 nM | Cc1ccc(CNC(=O)C(c2ccc3cc(OCc4ccc5ccccc5n4)ccc3c2)C2CCCC2)cc1 (stereo not shown) [Example 12]
235 nM | O=C(N[C@@H](CO)c1ccccc1)[C@H](c1ccc(OCc2ccc3ccccc3n2)cn1)C1CCCCCC1 [Example 13]
235 nM | O=C(N[C@@H](CO)c1ccccc1)[C@@H](c1ccc(OCc2ccc3ccccc3n2)cn1)C1CCCCCC1 [Example 14]
